Results taken from ChEMBL document CHEMBL1135532, “Synthesis of potent leukotriene A(4) hydrolase inhibitors. Identification of 3-[methyl[3-[4-(phenylmethyl)phenoxy]propyl]amino]propanoic acid” (J Med Chem, 2002).

Tests used:
[1] = target: T1, Leukotriene A-4 hydrolase (Homo sapiens, UniProt P09960); assay: Inhibition of human whole blood LTB-4 production (Leukotriene B-4).; assay type: functional
T1 sequence (P09960 whole entry): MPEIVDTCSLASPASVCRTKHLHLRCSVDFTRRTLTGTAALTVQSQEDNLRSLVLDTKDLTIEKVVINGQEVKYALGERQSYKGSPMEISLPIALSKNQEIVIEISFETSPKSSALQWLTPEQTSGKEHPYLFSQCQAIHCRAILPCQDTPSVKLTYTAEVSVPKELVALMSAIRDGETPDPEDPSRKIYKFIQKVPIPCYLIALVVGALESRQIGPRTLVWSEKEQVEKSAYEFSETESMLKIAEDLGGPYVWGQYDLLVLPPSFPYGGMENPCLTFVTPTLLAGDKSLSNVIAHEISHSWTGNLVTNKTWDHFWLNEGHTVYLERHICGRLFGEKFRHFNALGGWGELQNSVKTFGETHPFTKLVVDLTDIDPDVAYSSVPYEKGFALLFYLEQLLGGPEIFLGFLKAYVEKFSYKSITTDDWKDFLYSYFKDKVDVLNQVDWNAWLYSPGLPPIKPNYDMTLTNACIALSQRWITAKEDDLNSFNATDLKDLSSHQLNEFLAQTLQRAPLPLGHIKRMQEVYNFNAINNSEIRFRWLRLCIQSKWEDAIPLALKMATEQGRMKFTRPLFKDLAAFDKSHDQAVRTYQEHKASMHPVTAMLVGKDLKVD

Mus musculus [2] = organism: Mus musculus; assay: Effective dose measured for mouse ex vivo whole blood LTB-4 production (Leukotriene B-4); assay type: functional
[3] = target: T1, Leukotriene A-4 hydrolase; assay: Inhibition of human leukotriene A4 hydrolase (LTA-4).
Mus musculus [4] = organism: Mus musculus; assay: Effective dose measured for mouse ex vivo whole blood LTB-4 production; Range is from 3-10.; assay type: functional
Mus musculus [5] = assay: Percentage inhibition of mouse ex vivo whole blood LTB-4 production (Leukotriene B-4) at a concentration of 10 mg/kg.; assay type: functional
Mus musculus [6] = organism: Mus musculus; assay: Effective dose measured for mouse ex vivo whole blood LTB-4 production; Range is from 1-3.; assay type: functional
Mus musculus [7] = organism: Mus musculus; assay: Effective dose measured for mouse ex vivo whole blood LTB-4 production; Range is from 1-3; assay type: functional

Q: With `CN(CCCOc1ccc(Oc2ccc(-c3ccccc3)cc2)cc1)CCC(=O)O` as the compound, how does the IC50 [1] read?
A: The IC50 was 190 nM.

Q: What about the ED90 (Mus musculus [2]) of the same compound?
A: The ED90 was 10 mg/kg.

Q: And the IC50 [3]?
A: Its IC50 is under 0.5 nM.

Q: `COC(=O)CCCN(C)CCOc1ccc(Cc2ccccc2)cc1` was tested. Which IC50 [1] did it give?
A: Its IC50 is 460 nM.

Q: What about the ED90 (Mus musculus [2]) of the same compound?
A: The ED90 was at least 10 mg/kg.

Q: And the IC50 [3]?
A: Its IC50 is 450 nM.

Q: For `O=C(O)CCNCCCOc1ccc(Cc2ccccc2)cc1`, which IC50 [1] is on record?
A: Its IC50 is 280 nM.

Q: What about the ED90 (Mus musculus [2]) of the same compound?
A: The ED90 was at least 10 mg/kg.

Q: For `CCOC(=O)CCCCNCCOc1ccc(Cc2ccccc2)cc1`, which IC50 [1] is on record?
A: The IC50 was 2500 nM.

Q: And the IC50 [3]?
A: Its IC50 is 10700 nM.

Q: `CN(CCCOc1ccc(Cc2ccccc2)cc1)CCC(=O)NS(C)(=O)=O` was tested. Which IC50 [1] did it give?
A: The IC50 was 70 nM.

Q: And the ED90 (Mus musculus [2])?
A: Its ED90 is at most 1 mg/kg.

Q: What does the source list for `CN(CCCOc1ccc(Cc2ccccc2)cc1)CCn1cnnn1`?
A: IC50 [1]: 560 nM; IC50 [3]: 1650 nM

Q: Which ED90 (Mus musculus [4]) does the source give for `CN(CCCOc1ccc(Cc2ccsc2)cc1)CCC(=O)O` here?
A: Its ED90 is 10 mg/kg.

Q: `c1ccc(-c2ccc(OCCN3CCCC3)cc2)cc1` was tested. Which inhibition in vivo at 10 mg/kg (Mus musculus [5]) did it give?
A: The inhibition in vivo at 10 mg/kg was 9%.

Q: Which IC50 [1] does the source give for `CN(CCCCOc1ccc(Cc2ccccc2)cc1)CC(=O)O` here?
A: The IC50 was 450 nM.

Q: What about the IC50 [3] of the same compound?
A: The IC50 was 110 nM.

Q: Which inhibition in vivo at 10 mg/kg (Mus musculus [5]) does the source give for `CN(CCCOc1ccc(Cc2ccccc2)cc1)CCC(N)=O` here?
A: The inhibition in vivo at 10 mg/kg was 98%.

Q: And the IC50 [1]?
A: Its IC50 is 110 nM.

Q: And the IC50 [3]?
A: The IC50 was 7 nM.

Q: Which inhibition in vivo at 10 mg/kg (Mus musculus [5]) does the source give for `O=C(O)CCNCCCCOc1ccc(Cc2ccccc2)cc1` here?
A: The inhibition in vivo at 10 mg/kg was 70%.

Q: And the IC50 [1]?
A: The IC50 was 490 nM.

Q: Which results are given for `CN(CCCOc1ccc(Cc2ccc(F)cc2)cc1)CCC(=O)O`?
A: IC50 [1]: 190 nM; ED90 (Mus musculus [2]): ≥ 10 mg/kg

Q: What does the source list for `CN(CCCOc1ccc(Oc2ccc(-c3ncco3)cc2)cc1)CCC(=O)O`?
A: IC50 [1]: 190 nM; ED90 (Mus musculus [2]): ≥ 10 mg/kg

Q: Which results are given for `CN(CCCOc1ccc(Oc2ccccc2)cc1)CCC(=O)O`?
A: IC50 [1]: 230 nM; ED90 (Mus musculus [2]): 3 mg/kg; IC50 [3]: 19 nM

Q: For `CCOC(=O)CNCCCCOc1ccc(Cc2ccccc2)cc1`, which IC50 [1] is on record?
A: Its IC50 is 350 nM.

Q: And the ED90 (Mus musculus [2])?
A: The ED90 was at least 10 mg/kg.

Q: `COC(=O)CCNCCOc1ccc(Cc2ccccc2)cc1` was tested. Which IC50 [1] did it give?
A: Its IC50 is 590 nM.

Q: With `CN(CCCOc1ccc(Cc2ccccc2)cc1)CCC(=O)NS(=O)(=O)c1ccccc1` as the compound, how does the IC50 [1] read?
A: Its IC50 is 75 nM.

Q: What about the ED90 (Mus musculus [2]) of the same compound?
A: The ED90 was 3 mg/kg.

Q: With `CN(CCCOc1ccc(Cc2ccccc2)cc1)CCS(N)(=O)=O` as the compound, how does the inhibition in vivo at 10 mg/kg (Mus musculus [5]) read?
A: The inhibition in vivo at 10 mg/kg was 84%.

Q: And the IC50 [1]?
A: Its IC50 is 740 nM.

Q: And the IC50 [3]?
A: Its IC50 is 4 nM.

Q: How did the ED90 (Mus musculus [4]) turn out when `CCOC(=O)CCN(C)CCCOc1ccc(Cc2ccccc2)cc1` was run?
A: Its ED90 is 10 mg/kg.

Q: And the IC50 [1]?
A: Its IC50 is 110 nM.

Q: `CCOC(=O)CNCCCCCOc1ccc(Cc2ccccc2)cc1` was tested. Which IC50 [1] did it give?
A: Its IC50 is 420 nM.

Q: And the ED90 (Mus musculus [2])?
A: Its ED90 is 10 mg/kg.

Q: With `CCOC(=O)CCN(C)CCCCOc1ccc(Cc2ccccc2)cc1` as the compound, how does the IC50 [1] read?
A: The IC50 was 520 nM.

Q: What about the IC50 [3] of the same compound?
A: The IC50 was over 10000 nM.

Q: For `O=C(O)CNCCCCOc1ccc(Cc2ccccc2)cc1`, which IC50 [1] is on record?
A: The IC50 was 230 nM.

Q: And the ED90 (Mus musculus [2])?
A: The ED90 was at least 10 mg/kg.

Q: And the IC50 [3]?
A: The IC50 was 1.3 nM.

Q: With `CCOC(=O)CCCNCCOc1ccc(Cc2ccccc2)cc1` as the compound, how does the IC50 [1] read?
A: The IC50 was 2500 nM.

Q: What about the IC50 [3] of the same compound?
A: Its IC50 is 3700 nM.

Q: How did the inhibition in vivo at 10 mg/kg (Mus musculus [5]) turn out when `c1coc(-c2ccc(Oc3ccc(OCCN4CCCC4)cc3)cc2)n1` was run?
A: Its inhibition in vivo at 10 mg/kg is 93%.

Q: Which results are given for `CCOC(=O)CCNCCCOc1ccc(Cc2ccccc2)cc1`?
A: IC50 [1]: 450 nM; IC50 [3]: 84 nM

Q: `CCOC(=O)CNCCOc1ccc(Cc2ccccc2)cc1` was tested. Which IC50 [1] did it give?
A: The IC50 was over 30000 nM.

Q: What about the IC50 [3] of the same compound?
A: The IC50 was 2500 nM.

Q: How did the ED90 (Mus musculus [4]) turn out when `COC(=O)CCN(C)CCCOc1ccc(Cc2cccs2)cc1` was run?
A: The ED90 was 10 mg/kg.

Q: What about the IC50 [1] of the same compound?
A: Its IC50 is 95 nM.

Q: For `CN(CCCOc1ccc(Oc2ccc(-c3nccs3)cc2)cc1)CCC(=O)O`, which inhibition in vivo at 10 mg/kg (Mus musculus [5]) is on record?
A: The inhibition in vivo at 10 mg/kg was 87%.

Q: What about the IC50 [1] of the same compound?
A: The IC50 was 72 nM.

Q: Which ED90 (Mus musculus [4]) does the source give for `CN(CCCOc1ccc(Cc2cccs2)cc1)CCC(=O)O` here?
A: Its ED90 is 10 mg/kg.

Q: With `CN(CCCOc1ccc(Cc2ccccc2)cc1)CCC(=O)O.Cl` as the compound, how does the ED90 (Mus musculus [6]) read?
A: Its ED90 is 3 mg/kg.

Q: Which inhibition in vivo at 10 mg/kg (Mus musculus [5]) does the source give for `CCOC(=O)CNCCCOc1ccc(Cc2ccccc2)cc1` here?
A: The inhibition in vivo at 10 mg/kg was 22%.

Q: And the IC50 [1]?
A: The IC50 was 1100 nM.

Q: Which results are given for `CN(CCCOc1ccc(Oc2ccc(F)cc2)cc1)CCC(=O)O`?
A: IC50 [1]: 210 nM; ED90 (Mus musculus [2]): 3 mg/kg; IC50 [3]: 160 nM

Q: How did the IC50 [1] turn out when `CCOC(=O)CCNCCCCOc1ccc(Cc2ccccc2)cc1` was run?
A: Its IC50 is 76 nM.

Q: And the ED90 (Mus musculus [2])?
A: Its ED90 is 3 mg/kg.

Q: Which results are given for `COC(=O)CCN(C)CCCOc1ccc(Cc2ccsc2)cc1`?
A: IC50 [1]: 250 nM; IC50 [3]: 870 nM; ED90 (Mus musculus [7]): 3 mg/kg

Q: How did the IC50 [1] turn out when `CN(CCCOc1ccc(Cc2ccccc2)cc1)CCS(=O)(=O)O` was run?
A: The IC50 was 5200 nM.

Q: And the IC50 [3]?
A: The IC50 was 220 nM.

Q: `CCOC(=O)CN(C)CCCCOc1ccc(Cc2ccccc2)cc1` was tested. Which IC50 [1] did it give?
A: The IC50 was 3300 nM.

Q: And the IC50 [3]?
A: Its IC50 is 6600 nM.

Q: How did the inhibition in vivo at 10 mg/kg (Mus musculus [5]) turn out when `COC(=O)CCN(C)CCCOc1ccc(Cc2cccnc2)cc1` was run?
A: The inhibition in vivo at 10 mg/kg was 58%.
